Experimental data published in patent publication US20180339016A1 (priority 2015, published 2018).
Like-named read-outs stand apart in the source and are kept apart here.

Tested on: E. coli ATCC 25922
Assay: Antibiotic interaction assay (Wimley), 2/3 broth microdilution: MIC alone, MIC of combination, FICI
Type: cell-based
Conditions: for MIC of combination (μM): antibiotic: concentration of labelled drug in combination with KL-L9P; for FICIKL-L9P / FICIantibiotic / FICI of drug with KL-L9P: labelled drug + KL-L9P; for FICI of drug with colistin: labelled drug + colistin; for MIC of drug with 1 μM KL-L9P / dilution of MIC relative to drug alone: with 1 μM of KL-L9P
Protocol: Synergy was evaluated by an antibiotic interaction assay (Wimley, 2015) Using the method of Wimley (BBA, 2015, v. 1848(1), pp. 8-15), synergy between the membrane-activating peptide and an antibiotic was measured by an FICI value (FIG. 17). […] Thus, to accurately examine synergy, a ⅔ dilution method which observes MIC at denser concentration intervals is advantageous over a ½ dilution method in statistical terms. […] In the same manner, the MIC of an antibiotic or repositioning drug (second line) is measured. In the third line, the two compounds are mixed after putting half amount each, and the MIC thereof is measured.
A broth microdilution technique (⅔ dilution) was used together with an MH broth. E. coli treated with an antibiotic and the peptide was incubated in a 37° C. incubator for 18 hours.
To measure the synergy between the membrane-activating peptides and the repositioning drug, a 10× compound was prepared, and then serially diluted ⅔-fold with distilled water. An MH broth (900 μl) was added to and mixed with the 10× compound (100 μl), and then 200 μL of the mixture was taken and added to a 96-well plate. E. coli cultured for one day was adjusted to 0.5 MCF using MCFarland, and diluted 10-fold, and then 10 μl of the dilution was added to each well of the plate (5×10^5 CFU/mL). After addition of the bacterial cells, plate was incubated at 37° C. for 18 hours, and then the OD value at UV-Vis (600 nm) was measured. Cell viability (%)=(OD600 of sample−OD600 of negative control)/(OD600 of positive control−OD600 of negative control)×100.

[1] = Escherichia coli, ATCC25922, 18 h, Tables 19-23, read-out: MIC (μM) against E. coli ATCC, 1 compound alone
[2] = Escherichia coli, ATCC25922, 18 h, drug alone, <20% growth of positive control, read-out: MIC of antibiotic

| Compound | MIC [2] [µM] | MIC of combination (μM): antibiotic [µM] | FICIKL-L9P | FICIantibiotic | FICI of drug with KL-L9P | further results |
| --- | --- | --- | --- | --- | --- | --- |
| Cc1onc(-c2ccccc2Cl)c1C(=O)N[C@@H]1C(=O)N2[C@@H]1SC(C)(C)[C@@H]2C(=O)O [cloxacillin] | 74.1 | 17.78 | 0.25 | 0.24 | – | MIC [1]: 70 µM; MIC (μM) against E. coli ATCC, combination of two compounds (KL-L9P + cloxacillin, concentration of labelled component): 18 µM; MIC (μM) against E. coli ATCC, combination of 3 compounds (KL-L9P + colistin + cloxacillin, concentration of labelled component): 9.4 µM; MIC (μM) against E. coli ATCC, combination of two compounds (colistin + cloxacillin, concentration of labelled component): 38 µM; FICI of drug with colistin: about 1; MIC of drug with 1 μM KL-L9P: 0.3 µM; dilution of MIC relative to drug alone: 128 fold |
| CC(C)Cc1ccc([C@@H](C)C(=O)O)cc1 [(R)-ibuprofen] | 12000 | 555.56 | 0.23 | 0.05 | 0.27 | – |
| CC(C)Cc1ccc(C(C)C(=O)O)cc1 (stereo not shown) [ibuprofen] | – | – | – | – | – | MIC of drug with 1 μM KL-L9P: 3 µM; dilution of MIC relative to drug alone: about 3000 fold |
| CN(C)[C@@H]1C(=O)C(C(N)=O)=C(O)[C@@]2(O)C(=O)C3=C(O)c4c(O)cccc4[C@@](C)(O)[C@H]3C[C@@H]12 [tetracyclin] | – | – | – | – | – | synergy with KL-L9P: not synergistic |
| CC(=O)NC[C@H]1CN(c2ccc(N3CCOCC3)c(F)c2)C(=O)O1 [linezolid] | 71.1 | 15.80 | 0.18 | 0.22 | – | lowering of MIC in combination KL-L9P/colistin/linezolid versus alone: 10 fold; MIC [1]: 70 µM; MIC (Escherichia coli, ATCC25922, Example 7, read-out: MIC when the three compounds were used alone): 60 µM; MIC (Escherichia coli, ATCC25922, linezolid alone, read-out: MIC of Linezolid): 83 µM; MIC (μM) against E. coli ATCC, combination of 3 compounds (KL-L9P + colistin + linezolid, concentration of labelled component): 6.7 µM; MIC (μM) against E. coli ATCC, combination of two compounds (KL-L9P + linezolid, concentration of labelled component): 16 µM; MIC (μM) against E. coli ATCC, combination of two compounds (colistin + linezolid, concentration of labelled component): 36 µM; concentration killing E. coli in combination KL-L9P/colistin/linezolid (concentration of labelled component): 6 µM; FICI of drug with colistin: about 1; MIC (linezolid alone, read-out: MIC of Linezolid): 59 µM; MIC of drug with 1 μM KL-L9P: 10 µM; dilution of MIC relative to drug alone: about 16 fold |
| CC[C@H](C)C(=O)O[C@H]1C[C@@H](C)C=C2C=C[C@H](C)[C@H](CC[C@@H]3C[C@@H](O)CC(=O)O3)[C@H]21 [lovastatin] | > 500 | 74.07 | 0.14 | 0.10 | 0.24 | – |
| CC(C)c1c(C(=O)Nc2ccccc2)c(-c2ccccc2)c(-c2ccc(F)cc2)n1CC[C@@H](O)C[C@@H](O)CC(=O)O [atorvastatin] | > 500 | 166.67 | 0.38 | 0.22 | 0.60 | – |
| O=c1c(O)c(-c2ccc(O)c(O)c2)oc2cc(O)cc(O)c12 [quercetin] | 7500 | 108.39 | 0.33 | 0.01 | 0.35 | – |
| Oc1ccc(C=Cc2cc(O)cc(O)c2)cc1 [resveratrol] | 1770 | 246.91 | 0.11 | 0.14 | 0.25 | – |
| CCC(C)(C)C(=O)O[C@H]1C[C@@H](C)C=C2C=C[C@H](C)[C@H](CC[C@@H]3C[C@@H](O)CC(=O)O3)[C@H]21 [simvastatin] | > 500 | 52.47 | 0.11 | 0.07 | 0.18 | MIC [1]: > 500 µM; MIC (Escherichia coli, ATCC25922, simvastatin alone, read-out: MIC of simvastatin): 750 µM; MIC (μM) against E. coli ATCC, combination of 3 compounds (KL-L9P + colistin + simvastatin, concentration of labelled component): 33 µM; MIC (μM) against E. coli ATCC, combination of two compounds (KL-L9P + simvastatin, concentration of labelled component): 53 µM; MIC (μM) against E. coli ATCC, combination of two compounds (colistin + simvastatin, concentration of labelled component): 71 µM |
| O=C(O)c1cn(C2CC2)c2cc(N3CCNCC3)c(F)cc2c1=O [ciprofloxacin] | – | – | – | – | – | synergy with KL-L9P: not synergistic |
| CC(=O)Nc1ccc(O)cc1 [acetaminophen] | – | – | – | – | – | synergy with KL-L9P: not synergistic |
